Reference: patent US20240299393A1, “SMALL MOLECULE DISRUPTORS OF PROTEIN INTERACTIONS IN HISTONE DEACETYLASE COMPLEXES” (Dana-Farber Cancer Institute, Inc., priority 2021, published 2024)

Columns and labels:
[1] = test system: CDKN1A, SOCS3, EGR1 in SK-N-BE(2)-C cells; experiment: RT-qPCR of SIN3 HDAC complex-regulated genes in neuroblastoma cells; type: cell-based, human; conditions: 100 μM for 16 h
Protocol: The RT-qPCR protocol used in this study was described elsewhere [Choi et al 2012]. Culture, RNA extraction, and compound treatments for neuroblastoma SK-N-BE(2)-C cells are described below. Approximately 1 μg RNA per sample was used for reverse transcription. Using a thermocycler, RNA was denatured in the presence of 0.2 μg 18 mer oligo-dT by heating the plate at 65° C. for 10 min. The plate was then immediately cooled down on ice to anneal oligo-dT on the poly-A tail of mRNA. A master mix of AffinityScript Multiple Temperature Reverses Transcriptase (Agilent, cat #600107) was prepared following the manufacturer's protocol, and mixed with RNA samples previously annealed with the oligo-dT. The plate was incubated at 42° C. for 2 h to generate cDNAs from mRNA templates. The reverse transcriptase was then denatured by heating the plate at 70° C. for 15 min. The resulting cDNA was diluted (1:20) in sterile, ultra pure water (ddH2O), and stored at −20° C. until used for qPCR. To measure gene expression, the diluted cDNA was mixed with 5 μL PowerUp SYBR Green master mix (Applied Biosystems, cat #A25743), and the mix of primers (forward+reverse, see FIG. 31; 0.3 μM final concentration) for a total volume of 10 μL. Two technical replicates were generated per cDNA sample in the 384-well PCR plate (Applied Biosystems, cat #4343370). The plate was tightly sealed with optical adhesive film (Applied Biosystems, cat #4311971). Quantitative PCR was conducted with a QuantStudio real-time PCR system from Applied Biosystems, with the following settings: 50° C./2 min, 95° C./10 min, 96° C./15 s/40 cycles, and 60° C./30 s. Dissociation curves were checked for each PCR product, to assess the specificity of the PCR amplicons.
SK-N-BE(2)-C cells were maintained in cell culture flasks supplemented with 10% Fetal bovine serum (FBS) and penicillin/streptomycin (PS) in Dulbecco's Modified Eagle's Medium (DMEM). The cells were maintained at a log phase in a humidified 5% CO2 incubator at 37° C. For testing the effect of the compounds on gene expression, approximately 0.1 million cells were seeded on each well of 24-well cell culture plates, with 1 mL 10% FBS+PS+DMEM. 24 h after seeding the cells, they were exposed to the compounds or DMSO control for 16 h in a humidified 5% CO2 incubator at 37° C., before harvesting them.
Cells were harvested for RNA extraction using Nucleospin 96 RNA (Macherey-Nagel, cat #740709.4) following manufacturer's protocol. Briefly, supernatant was removed, and the cells were gently washed with 1× phosphate-buffered saline. 300 μL lysis buffer were added to each well of 24 well cell culture plates. Roughly 0.1 million cells were used for harvesting each RNA sample. RNA concentration was measured for all purified RNA samples using a nanodrop spectrophotometer.

[2] = test system: SK-N-BE(2)-C neuroblastoma cells; experiment: Matrigel cell invasion assay; type: cell-based, human; conditions: FIG. 39A
Protocol: SK-N-BE(2)C neuroblastoma cells were seeded at 5×10^4 cells per well density in a 24-well plate. Cells were treated for five days with compounds or with DMSO control in Dulbecco's Modified Eagle Medium containing 10% fetal bovine serum, penicillin and streptomycin, in quadruplicate. On Day five, cells were changed to serum-free medium with the same compound concentrations as during the 5-day treatment, and 50,000 cells were seeded on top of a Corning BioCoat Matrigel Invasion Chamber (cat #354480). Medium with 20% FBS was added as chemoattractant to the bottom of the well. Invasion assay was performed per manufacturer instructions. After 48 h, non-invading cells were removed by scrubbing with a cotton tip swab. Cells that remained inside the matrix were stained with 1% crystal violet dye and counted by eye. Percentage of invasive cells was calculated relative to DMSO control.

For `C[C@@H](NC(=O)c1c(O)n2ccccc2nc1=O)c1ccccc1` [E6R, 4-hydroxy-2-oxo-N—((R)-1-phenylethyl)-3,4-dihydro-2H-pyrido[, 2-a]pyrimidine-3-carboxamide], the “effect on expression of CDKN1A, SOCS3 and EGR1” value [1] was “only perturbed expression of two of the tested downstream genes” and the “migration of neuroblastoma cells in the invasion assay” value [2] was “significantly reduce”.

In the case of `CC(/C=C/C(=O)NO)=C\[C@@H](C)C(=O)c1ccc(N(C)C)cc1` [TSA, trichostatin A], the “effect on expression of CDKN1A, SOCS3 and EGR1” value [1] is reported as “derepressed” and the “migration of neuroblastoma cells in the invasion assay” value [2] is reported as “significantly reduce”.
